# From US11351095B2, “Stabilized emulsions with acidic agents” (Avon Products, Inc., priority 2018, dated 2022)
# Test: First normal stress difference of glycerin phases (AR-G2 rheometer)
# Format: physicochemical
# Description: The first normal stress difference of several glycerin phases (“Phase”) was measured prior to emulsification. A TA Instruments AR-G2 Rheometer was used to perform viscosity measurements for each of the phases A-E and a 100% glycerin phase using a 2 degree cone and plate geometry and a 52 micron gap. Measurements were taken at a shear stress of 100 Pa and 25° C. (77° F.).
compound,measurement,setting,value
"OCC(O)CO [Glycerin (100%), Glycerin]","First Normal Stress Difference (N1 = 2 × Je × η^2 × γ^2, Pa)","glycerin phase prior to emulsification, shear stress of 100 Pa and 25° C., 2 degree cone and plate, 52 micron gap",0 Pa
same,extensional viscosity,inferred from first normal stress difference,no extensional viscosity
